Experiments:
293T cells = experiment: Cellular cytotoxicity by counting cells after 48 hrs with compound vs DMSO; format: cell-based; settings: 48 hrs; for Cytotoxicity: Cell Proliferation Blocked at: concentration at which proliferation was blocked
Procedure: (§1) To screen compounds that can boost A3G levels, 293T cells (25,000 cells per well in 96-well plate) stably expressing A3G-Luc protein or A3G-Luc/Vif proteins were plated. After 24 hrs post plating culture medium was replaced with 100 μl of new medium containing either DMSO as a control or various compounds (10 μM concentration). After 48 hrs of incubation with compounds culture medium was removed from each well and replaced with 100 μl of Britelite Plus luciferase assay substrate (PerkinElmer). Following 5 min. of incubation at room temperature, 75 μl of each cell lysate was transferred to a 96-well OptiPlate 96 (PerkinElmer) and luminescence was measured in a VICTOR X2 Multilabel Reader (PerkinElmer). Relative activity of compounds for their boosting capability A3G-Luc activity was calculated by plotting DMSO-treated A3G-Luc or A3G-Luc/Vif cells as 100%. Cellular cytotoxicity was measured by counting number of cells after 48 hrs of incubation with compounds compared to DMSO treated cells.

A3G-Luc = A3G-Luc luciferase screen in 293T cells stably expressing A3G-Luc; format: cell-based, human; settings: 10 μM, 48 hrs, DMSO = 100%
Source text: This background led to construction of cell lines to use in a search for compounds that might boost levels of A3s in the HIV target cells of the majority of HIV-infected persons who are non-controllers. The goal is to test a strategy of using such a booster in acute/early infection to prevent the hypothesized decrease of A3G and related A3s in an effort to increase “control” in persons lacking HLA B57/27-associated control. […] 293T and TZM-bl cells were maintained in DMEM (containing 4.5 g/liter glucose, L-glutamine, and sodium pyruvate) medium plus 10% fetal bovine serum, 50 IU/ml penicillin, and 50 μg/ml streptomycin at 37° C. and 5% CO2 throughout the experiments. […]. After collecting viral supernatant, 293T cells were infected with viral particles harboring the A3G-Luc expressing vector and selected with puromycin (0.75 μg/ml) for three days. Ten single cell clones of stable cells were isolated and tested for expression of A3G-Luc protein by both immunoblotting using antibody against A3G and measuring luciferase activity. Expressions in cell lines used for subsequent experiments are depicted in FIG. 2, upper panel. The A3G-Luc fusion protein was sensitive to Vif-mediated degradation (FIG. 3). Similar cells lines stably expressing A3F were constructed with the same methods (not shown).
as §1, with “After 24 hrs post plating culture medium was replaced with 100 μl of new medium containing either DMSO as a control or various compounds (10 μM concentration).” left out

A3G-Luc/Vif = A3G-Luc/Vif luciferase screen in 293T cells stably co-expressing A3G-Luc and HIV-1 Vif; format: cell-based, human; settings: 10 μM, 48 hrs, DMSO = 100%
Procedure: FIG. 6. 293T cell clone #6 stably co-expressing A3G-Luciferase fusion protein together with HIV-1 Vif was used. Small molecule compounds were tested for their effects on stability of A3G and inhibition of Vif activity against A3G by measuring luciferase activity, relative to treatment with control DMSO only. The relative % luciferase activity was higher after treatment with NU compounds than DMSO.
[…]. After sorting, expression of both A3G-Luc and Vif was confirmed by immunoblotting using antibody against both A3G and Vif.
as §1

Wild-type HIV-1 [1] = experiment: A3F-mediated restriction of wild-type HIV-1; virus from 293T stably expressing A3F, TZM-bl readout; format: cell-based; settings: Human immunodeficiency virus 1, HEK-293T, read-out: A3F-mediated Restriction by Compounds on Wild-type HIV-1 (% of HIV replication relative to DMSO treated Control)
Procedure: (§2) To test the effect of compounds shown to boost A3G-Luc levels in our screening systems on inhibition of wild-type HIV-1 replication by A3G or A3F, 293T cell lines stably expressing A3G or A3F were plated (750,000 cells per well in 6-well plate). At 24 hrs post plating, 1.5 μg of a wild-type (Vif-positive) HIV-1 proviral vector, NL4.3, was transfected into the 293T stable cell lines expressing either A3G or A3F. At 4 hrs post transfection, either DMSO as a control or an individual compound from series described below was added into the culture medium at a 10 μM concentration. At 1 day post transfection, supernatant fluids containing viral particles were filtered through […] filter to remove cellular debris. To test the effect of compound on HIV-1 replication, TZM-bl indicator cells were plated at a density of 10,000 cells/well in a 96 well culture plate 24 hrs prior to infection. TZM-bl indicator cells express luciferase gene under the control of HIV LTR promoter and are routinely used to measure HIV-1 replication capability. On the day of infection, the culture medium was removed and the cells inoculated with equal amount of HIV-1 particles in triplicate with 100 μl of viral supernatants in culture medium containing 20 μg/ml DEAE-dextran. After 24 hrs of incubation, culture medium was removed from each well and replaced with 100 μl of Britelite Plus luciferase assay substrate. Following 5 min. of incubation at room temperature, 75 μl of each cell lysate was transferred to a 96-well OptiPlate 96 and luminescence was measured in a VICTOR X2 Multilabel Reader as described above. Relative infectivity was calculated by plotting luciferase activity from viral particle from DMSO treated A3G or A3F cell lines as 100%. We only tested effect A3F- or A3G mediated restriction of HIV-1 replication by compounds boosting luciferase activity by more than 160% compared to DMSO control sample.

Wild-type HIV-1 [2] = experiment: A3G-mediated restriction of wild-type HIV-1; virus from 293T stably expressing A3G, TZM-bl readout; format: cell-based; settings: Human immunodeficiency virus 1, HEK-293T, read-out: A3G-mediated Restriction by Compounds on Wild-type HIV-1 (% of HIV replication relative to DMSO treated Control)
Procedure: as §2

Row | Structure (SMILES) | Cytotoxicity: Cell Proliferation Blocked at (293T cells) | A3G-Luc Activity (% of Relative Light Units compared to DMSO treated control) (A3G-Luc) | Vif-A3G-Luc Activity (% of RLUs compared to DMSO treated control) (A3G-Luc/Vif) | activity at 10 µM (Wild-type HIV-1 [1]) | activity at 10 µM (Wild-type HIV-1 [2]) | Cytotoxicity: Cell Death at (293T cells; concentration at which cell death was seen)
1 | CC(C)(C)OC(=O)NCCOCCOc1ccc(C(=O)Nc2ccc(Cl)c(Cl)c2)cc1N [NU-124] | Cell Proliferation Blocked at 10 μM | 25% | – | – | – | –
2 | CC(C)C(=O)Nc1cc(C(=O)Nc2ccc(Cl)c(Cl)c2)ccc1OCCOCCNC(=O)CCCCC1SC[C@@H]2NC(=O)N[C@H]12 (some centres unmarked) [NU-127] | Cell Proliferation Blocked at 10 μM | 68% | – | – | – | –
3 | COc1ccc(C(=O)Nc2ccc(Cl)c(Cl)c2)cc1NC(=O)C1CC1C (centres unmarked) [NU-465] | – | 193% | 106% | 53% | 47% | –
4 | COCCC(=O)Nc1cc(C(=O)Nc2ccc(Cl)c(Cl)c2)ccc1OC [NU-463] | – | 287% | 178% | 67% | 64% | –
5 | CC(C)(C)OC(=O)NCCOCCOc1ccc(C(=O)Nc2ccc(Cl)c(Cl)c2)cc1NC(=O)CC1CC1 [NU-126] | Cell Proliferation Blocked at 10 μM | 4.8% | – | – | – | –
6 | COc1ccc(C(=O)Nc2ccc(Cl)c(Cl)c2)cc1NS(C)(=O)=O [NU-467] | – | 194% | 146% | 64% | 79% | –
7 | COCCOc1ccc(C(=O)Nc2ccc(Cl)c(Cl)c2)cc1NC(=O)C1CCC1 [NU-616] | – | 171% | 152% | – | 95% | –
8 | CCOc1ccc(C(=O)Nc2ccc(Cl)c(Cl)c2)cc1NC(=O)C1CCC1 [NU-612] | – | 202% | 178% | 96% | 81% | –
9 | COC(=O)Nc1cc(C(=O)Nc2ccc(Cl)c(Cl)c2)ccc1OC [NU-460] | – | 254% | 119% | 34% | 34% | –
10 | CC(C)C(=O)Nc1cc(C(=O)Nc2ccc(Cl)c(Cl)c2)ccc1OCCOCCNC(=O)OC(C)(C)C [NU-125] | Cell Proliferation Blocked at 10 μM | 25% | – | – | – | –
11 | O=C(CCCCC1SC[C@@H]2NC(=O)N[C@H]12)NCCOCCOc1ccc(C(=O)Nc2ccc(Cl)c(Cl)c2)cc1NC(=O)CC1CC1 (some centres unmarked) [NU-128] | – | 141% | – | – | 62% | –
12 | COc1ccc(C(=O)Nc2ccc(Cl)c(Cl)c2)cc1NC(=O)CN(C)C [NU-471] | – | 238% | 175% | 65% | 66% | –
13 | CCOc1ccc(C(=O)Nc2ccc(Cl)c(Cl)c2)cc1NC(=O)CC1CC1 [NU-613] | – | 186% | 158% | 85% | 98% | –
14 | COc1ccc(C(=O)Nc2ccc(F)cc2)cc1NC(=O)C(C)C [NU-564] | – | 162% | 102% | – | 72% | –
15 | COCC(=O)Nc1cc(C(=O)Nc2ccc(Cl)c(Cl)c2)ccc1OC [NU-462] | – | 282% | 170% | 53% | 62% | –
16 | COc1ccc(C(=O)Nc2ccc(Cl)c(Cl)c2)cc1NC(=O)N(C)C [NU-472] | – | 238% | 146% | 49% | 61% | –
17 | COc1ccc(C(=O)Nc2ccc(Cl)c(Cl)c2)cc1NS(=O)(=O)C(C)C [NU-468] | – | 213% | 147% | 48% | 58% | –
18 | COCCOc1ccc(C(=O)Nc2ccc(Cl)c(Cl)c2)cc1NC(=O)CC1CC1 [NU-617] | – | 191% | 182% | – | 74% | –
19 | COc1ccc(C(=O)Nc2ccc(Cl)c(Cl)c2)cc1NC(=O)C1CCCO1 (centres unmarked) [NU-464] | – | 288% | 170% | 77% | 77% | –
20 | COc1ccc(C(=O)Nc2ccc(Cl)c(Cl)c2)cc1NC(=O)C(C)(C)C [NU-458] | – | 189% | 123% | 45% | 54% | –
21 | COc1ccc(C(=O)Nc2cc(OC)c(OC)c(OC)c2)cc1N [NU-49] | – | – | – | – | – | Cell Death at 10 μM

— patent publication US9688637B2, “3-amidobenzamides and uses thereof for increasing cellular levels of A3G and other A3 family members” (Northwestern University, priority 2014, dated 2017)
